Molecular target: T1, LOXL3 (Homo sapiens, UniProt P58215)
T1 construct: purchased R&D Systems/Bio-techne
T1 sequence (P58215 26-753): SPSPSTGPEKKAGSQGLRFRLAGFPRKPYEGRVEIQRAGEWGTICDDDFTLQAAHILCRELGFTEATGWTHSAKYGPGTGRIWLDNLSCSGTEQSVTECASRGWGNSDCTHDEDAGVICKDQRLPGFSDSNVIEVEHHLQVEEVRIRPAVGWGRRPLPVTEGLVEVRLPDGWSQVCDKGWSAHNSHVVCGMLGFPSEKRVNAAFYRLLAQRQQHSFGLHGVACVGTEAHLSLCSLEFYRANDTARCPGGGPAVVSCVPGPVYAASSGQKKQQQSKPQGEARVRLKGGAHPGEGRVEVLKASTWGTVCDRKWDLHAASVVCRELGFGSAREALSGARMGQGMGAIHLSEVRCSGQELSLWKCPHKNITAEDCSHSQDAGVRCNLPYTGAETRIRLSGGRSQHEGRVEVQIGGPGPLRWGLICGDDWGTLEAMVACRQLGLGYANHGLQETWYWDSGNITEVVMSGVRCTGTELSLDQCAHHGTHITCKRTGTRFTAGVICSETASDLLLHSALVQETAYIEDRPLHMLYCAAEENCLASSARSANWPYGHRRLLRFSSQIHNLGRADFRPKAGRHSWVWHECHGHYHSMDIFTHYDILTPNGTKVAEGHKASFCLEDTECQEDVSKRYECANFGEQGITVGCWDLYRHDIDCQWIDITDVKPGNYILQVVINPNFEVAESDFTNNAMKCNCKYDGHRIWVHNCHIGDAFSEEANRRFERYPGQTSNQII
Assay: LOX isoform activity assay (ROS Glo), LOXL3
Assay type: biochemical
Details: 1 h incubation with enzyme
Protocol: LOX was extracted from pig skin by previously described methods (Shackleton and Hulmes, 1990). LOXL2 and LOXL3 were obtained from R&D Systems/Bio-techne. The Promega ROS Glo assay kit (G8821) was used to assess enzyme activity. Overall, test compound was added to either 384 well assay plates (Greiner) using a Labcyte Echo™ Acoustic Handler or to 96 well plates for a final assay concentration of 100, 30, 10, 3, 1, 0.3, 0.1, 0.03, 0.01 and 0.003 μM final assay concentration. Enzymes were diluted according to specific pre-determined activity in assay buffer (100 mM CHES, pH 9, 0.05% (w/v) pluronic F-127, 0.5% (w/v) BSA, 1 mM MgCl2, 1 M urea, 100 mM NaCl) and added to the plate. For LOXL2, the mixture was incubated for 20 min, 1 h or 20 h; for LOX and LOXL3, incubation time was 1 h. Cadaverine and H2O2 substrate were then added to each well (final assay concentration 19.56 mM and 25 μM respectively) and the plates were incubated for 1.5 h (for LOX) or 1 h (for LOXL2 and LOXL3) at room temperature. Finally, luciferin detection reagent was added and plates were incubated for 20 min at room temperature, protected from light. Luminescence was measured using a BMG LABTECH PHERAstar FS reader and resulting IC50 values were calculated using GraphPad Prism software.

Compared with `CCOc1ccc(N2C[C@@H]3C[C@H]2CN3C(=O)CS(=O)(=O)CCN)cc1` [Example 8, 2-((2-aminoethyl)-sulfonyl)-1-((1S,4S)-5-(4-ethoxyphenyl)-2,5-diazabicyclo-[2.2.1]heptan-2-yl)-ethan-1-one], `NCCS(=O)(=O)CC(=O)N1CCN(c2ccccc2)CC1` [Example 13, 2-((2-Aminoethyl)-sulfonyl)-1-(4-phenylpiperazin-1-yl)ethan-1-one] is 2-fold lower in IC50: 0.55 µM for the first, 0.28 µM for the second.

Molecular target: T2, LOX (Sus scrofa, UniProt P45845)
T2 construct: LOX was extracted from pig skin by previously described methods; from tissue; host or cells: pig skin
T2 sequence (P45845 1-249): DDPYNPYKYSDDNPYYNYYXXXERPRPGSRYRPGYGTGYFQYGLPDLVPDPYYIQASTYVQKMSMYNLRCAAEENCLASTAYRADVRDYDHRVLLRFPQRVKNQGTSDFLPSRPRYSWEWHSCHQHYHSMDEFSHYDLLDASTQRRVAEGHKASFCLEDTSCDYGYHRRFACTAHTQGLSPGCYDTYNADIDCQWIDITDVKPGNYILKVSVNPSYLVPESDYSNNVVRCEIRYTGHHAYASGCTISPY
Assay: LOX isoform activity assay (ROS Glo), LOX
Assay type: biochemical, pig
Details: 1 h incubation with enzyme
Method in brief: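 Pig-skin LOX or recombinant LOXL3 preincubated 1 h with compound (100-0.003 μM final) in pH 9 CHES buffer containing 1 M urea. Then 19.56 mM cadaverine plus 25 μM H2O2 added, 1.5 h (LOX) or 1 h (LOXL3) at room temperature. ROS-Glo luminescence; IC50 from curve fit.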

Compared with `CCOc1ccc(N2C[C@H]3CN(C(=O)NCCS(=O)(=O)CCN)C[C@@H]2C(C)(C)C3)cc1` [Example 38, (1S,5S)—N-(2-((2-aminoethyl)sulfonyl)ethyl)-6-(4-ethoxyphenyl)-9,9-dimethyl-3,6-diazabicyclo[3.2.2]nonane-3-carboxamide], `CCOc1ccc(N2C[C@@H]3C[C@H]2CN3C(=O)C2(S(=O)(=O)CCN)CC2)cc1` [Example 42, (1-((2-Aminoethyl)sulfonyl)cyclopropyl)((1S,4S)-5-(4-ethoxyphenyl)-2,5-diazabicyclo[2.2.1]heptan-2-yl)methanone] is higher in IC50: 8.8 µM for the first, > 100 µM for the second. The first is the more potent here.

Going from `CCOC(=O)CCC(C(=O)N1C[C@@H]2C[C@H]1CN2c1ccc(OCC)cc1)S(=O)(=O)CCN` (stereo partly drawn) [Example 41, ethyl 4-((2-aminoethyl)sulfonyl)-5-((1S,4S)-5-(4-ethoxyphenyl)-2,5-diazabicyclo[2.2.1]heptan-2-yl)-5-oxopentanoate] to `NCCS(=O)(=O)CC(=O)N1CCN(c2ccccc2)CC1` [Example 13, 2-((2-Aminoethyl)-sulfonyl)-1-(4-phenylpiperazin-1-yl)ethan-1-one], the IC50 falls from 41 µM to 25 µM (1.6-fold). The second is the more potent here.

Source: US20220017516A1, “LOX INHIBITORS” (THE INSTITUTE OF CANCER RESEARCH: ROYAL CANCER HOSPITAL, priority 2018, published 2022)
